Patent US7728040B1, “Polyamine conjugates as selective NMDA inhibitors and anti-cancer drugs” (University of Central Florids Research Foundation, Inc., priority 2002, dated 2010)
Counter-ions that a name gives are not always drawn. Like-named read-outs stand apart in the source and are kept apart here.

Key:
L1210 cells = test: Cytotoxicity in L1210 cells; format: cell-based; conditions: Mus musculus
L1210 cells + DFMO = test: Cytotoxicity in L1210 cells pretreated with DFMO; format: cell-based, mouse; conditions: for IC50: Mus musculus; for L1210/(L1210 + DFMO) IC50 ratio: fold more toxic in the presence of DFMO
CHO-MG cells = test: Cytotoxicity in CHO-MG cells (polyamine-transport deficient); format: cell-based, Chinese hamster; conditions: Cricetulus griseus, read-out: CHO-MG IC50
polyamine transporter = test: Ki, affinity for the polyamine transporter in L1210 cells; format: binding, mouse
Protocol: Biological Evaluation. Three cell lines were chosen for bioassay. L1210 (mouse leukemia) cells were selected for comparison with the published IC50 and Ki values determined for a variety of polyamine substrates. In this regard both Ki and IC50 values were measured in this line for comparison purposes. Chinese hamster ovary (CHO) cells were chosen along with a mutant cell line (CHO-MG) in order to comment on polyamine transporter affinity and cell selectivity. The CHO-MG cell line is polyamine-transport deficient and was isolated after chronic selection for growth resistance to methylglyoxalbis (guanylhydrazone). For the purposes of this study, the CHO-MG cell line represents cells with limited polyamine transport activity. In contrast, the parent CHO cell line illustrates cell types with active polyamine transport. Comparison of efficacy in these two lines provided an important screen to detect conjugate delivery via the polyamine transporter, PAT. For example, a conjugate with high utilization of the transporter would be very toxic to CHO cells, but less so to CHO-MG cells. Therefore, IC50 determination in these two CHO lines provided a relative ranking of delivery via the PAT.

CHO cells = test: Cytotoxicity in CHO cells (active polyamine transporter); format: cell-based, Chinese hamster; conditions: for IC50: Cricetulus griseus, CHO, read-out: CHO IC50; for CHO-MG/CHO IC50 ratio: selectivity for cells with active polyamine transporter
[1] = L1210 cells, no DFMO, read-out: L1210 IC50
[2] = L1210 cells pretreated with DFMO, read-out: L1210 + DFMO IC50
[3] = polyamine-transport deficient line

| SMILES | IC50 (L1210 cells; [1]) [µM] | IC50 (L1210 cells + DFMO; [2]) [µM] | L1210/(L1210 + DFMO) IC50 ratio (L1210 cells + DFMO) | IC50 (CHO-MG cells; [3]) [µM] | Ki (polyamine transporter) [µM] | IC50 (CHO cells; active polyamine transporter) [µM] | CHO-MG/CHO IC50 ratio (CHO cells) | IC50 (L1210 cells; L1210, read-out: L1210 IC50) [µM] | IC50 (L1210 cells + DFMO; L1210, read-out: L1210 + DFMO IC50) [µM] | IC50 (CHO-MG cells) [µM] | IC50 (CHO cells) [µM] |
| --- | --- | --- | --- | --- | --- | --- | --- | --- | --- | --- | --- |
| Cl.Cl.Cl.NCCCN(CCCN)Cc1c2ccccc2cc2ccccc12 [Compound 8b, N-(3-Amino-propyl)-N-anthracen-9-ylmethyl-propane-1,3-diamine, trihydrochloride] | 1.8 | 1.4 | 1.3 | 3.4 | 33.4 | 1.9 | 1.8 |  |  |  |  |
| CCCCNCc1c2ccccc2cc2ccccc12 [Compound 35, N^1-Anthracen-9-ylmethyl-butylamine Monohydrochloride] | 14.6 | 21.9 | 0.7 | 11.2 | 62.3 | 10.5 | 1.1 |  |  |  |  |
| NCCCCNCCCNCCCNCc1c2ccccc2cc2ccccc12 [Compound 13a, N^1-{3-[3-(Anthracen-9-ylmethyl)-amino]-propylamino}-butane-1,4-diamine Tetrahydrochloride] | 21.8 | 21.9 | 1 | 41.5 | 0.107 | 44 | 0.9 |  |  |  |  |
| Cl.Cl.Cl.NCCCCN(CCCN)Cc1c2ccccc2cc2ccccc12 [Compound 8d, N-(3-Amino-propyl)-N-anthracen-9-ylmethyl-butane-1,4-diamine, trihydrochloride] | 0.4 | 0.2 | 2 | 9.5 | 6.2 | 0.4 | 24 |  |  |  |  |
| Cl.Cl.Cl.NCCCCNCCCCNCc1ccccc1 [Compound 27a, N-(4-Amino-butyl)-N′-benzene-1-ylmethyl-butane-1,4-diamine Trihydrochloride] | 36.3 | 421 | 0.1 | > 1000 | 4.5 | > 1000 |  |  |  |  |  |
| Cl.Cl.Cl.NC1CCC(NCCCCNCc2c3ccccc3cc3ccccc23)CC1 (stereo not drawn) [Compound 31, N-{4-[(Anthracen-9-ylmethyl)-amino]-butyl}-cyclohexane-1,4-diamine Trihydrochloride] | 1 | 0.7 | 1.4 | 17.4 | 3.8 | 2.5 | 7 |  |  |  |  |
| Cl.Cl.Cl.NCCCCNCCCNCc1c2ccccc2cc2ccccc12 [Compound 8c, N^1-{3-[(Anthracen-9-ylmethyl)-amino]-propyl}-butane-1,4-diamine, trihydrochloride] | 0.7 | 0.3 | 2.3 | 8.8 | 2.5 | 2.5 | 3.5 |  |  |  |  |
| Cl.Cl.Cl.Cl.NCCCCCN(CCCCNCCCN)Cc1c2ccccc2cc2ccccc12 [Compound 13g, N-[4-(3-Amino-propylamino)-butyl]-N-anthracen-9-ylmethyl-pentane-1,5-diamine Tetrahydrochloride] | 6.4 | 2.1 | 3 | 33.5 | 0.099 | 18 | 1.9 |  |  |  |  |
| Cl.Cl.Cl.Cl.NCCCCCN(CCCCNCCCCN)Cc1c2ccccc2cc2ccccc12 [Compound 13h, N-[4-(4-Amino-butylamino)-butyl]-N-anthracen-9-ylmethyl-pentane-1,5-diamine Tetrahydrochloride] | 7.2 | 3.8 | 1.9 | 30.8 | 0.065 | 9.9 |  |  |  |  |  |
| Cl.Cl.Cl.Cl.NCCCCCN(CCCCCNCCCCN)Cc1c2ccccc2cc2ccccc12 [Compound 13i, N-[5-(4-Amino-butylamino)-pentyl]-N-anthracen-9-ylmethyl-pentane-1,5-diamine Tetrahydrochloride] | 7.1 | 4.3 | 1.7 | 5.7 | 0.064 | 4 | 1.4 |  |  |  |  |
| Cl.Cl.Cl.Cl.NCCCCN(CCCCNCCCN)Cc1c2ccccc2cc2ccccc12 [Compound 13e, N-[4-(3-Amino-propylamino)-butyl]-N-anthracen-9-ylmethyl-butane-1,4-diamine Tetrahydrochloride] | 4.3 | 0.6 | 7.2 | 2.8 | 0.074 | 4 | 0.7 |  |  |  |  |
| Cl.Cl.Cl.Cl.NCCCCNCCCCN(CCCCN)Cc1c2ccccc2cc2ccccc12 [Compound 13f, N-[4-(4-Amino-butylamino)-butyl]-N-anthracen-9-ylmethyl-butane-1,4-diamine Tetrahydrochloride] | 7.5 | 1.6 | 4.7 | 33.2 | 0.051 | 10.6 |  |  |  |  |  |
| Cl.Cl.Cl.NCCCCCN(CCCCN)Cc1c2ccccc2cc2ccccc12 [Compound 8g, N-(4-Amino-butyl)-N-anthracen-9-ylmethyl-pentane-1,5-diamine, trihydrochloride] | 0.4 | 0.3 | 1.3 | 57.3 | 1.7 | 1.5 | 38 |  |  |  |  |
| Cl.Cl.NCCCCNCc1c2ccccc2cc2ccccc12 [Compound 34, N^1-Anthracen-9-ylmethyl-butane-1,4-diamine Dihydrochloride] | 6.3 | 9.78 | 0.7 | 7.6 | 32.2 | 7.7 | 1 |  |  |  |  |
| Cl.Cl.Cl.NCCCCCN(CCCN)Cc1c2ccccc2cc2ccccc12 [Compound 8f, N-(3-Amino-propyl)-N-anthracen-9-ylmethyl-pentane-1,5-diamine, trihydrochloride] | 1.3 | 0.7 | 1.9 | 10.1 | 5 | 4.1 | 2.5 |  |  |  |  |
| Cl.Cl.Cl.Cl.NCCCCCN(CCCCN)CCCNCc1c2ccccc2cc2ccccc12 [Compound 13d, N-(4-Amino-butyl)-N-{3-[(anthracen-9-ylmethyl)-amino]-propyl}-pentane-1,5-diamine Tetrahydrochloride] | 10.7 | 7.2 | 1.5 | 41.7 | 0.09 | 35 | 1.2 |  |  |  |  |
| Cl.Cl.NCCOCCOCCNCc1c2ccccc2cc2ccccc12 [Compound 33, 2-(2-{2-[(Anthracen-9-ylmethyl)-amino]-ethoxy}-ethoxy)-ethylamine Dihydrochloride] | 11.3 | 17 | 0.7 | 15.9 | 90 | 12.6 | 1.3 |  |  |  |  |
| Cl.Cl.Cl.NCCCCNCCCCNCc1ccc2ccc3cccc4ccc1c2c34 [Compound 27d, N-(4-Amino-butyl)-N′-pyren-1-ylmethyl-butane-1,4-diamine Trihydrochloride] |  |  | 1.1 |  | 2.9 |  | 34 | 0.4 | 0.36 | 15.5 | 0.46 |
